26 compounds from patent publication US8614206B2 (Genentech, Inc., priority 2011, dated 2013) can be followed below.

Assay [1] has as its system BaF3 PIM1 cells. The assay is described as follows: cells. The settings on record: Mus musculus, BaF3, read-out: Prolif BaF3_PIM1 (IC50), BaF3 PIM1 cells, incubated overnight.
Method: BaF3 parental line was obtained from the DSMZ repository. BaF3 lines transfected with PIM 1 or PIM2 were generated. Mouse IL-3 was purchased from R&D Systems. G418 was purchased from Clontech. Media for BaF3 parental line contained RPMI, 10% FBS, 2 mM L-Glutamine, 2 ng/mL mIL-3. Media for BaF3 PIM1 & 2 lines contained RPMI, 10% FBS, 2 mM L-Glutamine, 250 μg/mL.
BaF3, a murine interleukin-3 dependent pro-B cell line, parental cells, BaF3 PIM1 cells, BaF3 PIM2 cells, and MM1.S (multiple myeloma) cells were seeded at 2 k/well, 5 k/well, 5 k/well, and 10 k/well respectively, in a 384-well plate, at 45 μL/well. Test compound was added at 5 μL/well. BaF3 cells (parental and transfected) were incubated overnight, while MM1.S cells were incubated for 72 hours at 37° C., 5% CO2. CELL TITER GLO® Reagent (Promega) was added at 50 μL/well, the plates were incubated for 30 minutes, and their luminescence read on an HT Analyst. IC50/EC50 values for the test compound were calculated.
Assay [2] has as its system BaF3 parental cells. The assay is described as follows: In vitro cell proliferation, BaF3 parental line + IL3 (CellTiter-Glo). The format is cell-based, murine. The settings on record: read-out: Prolif BaF3 + IL3 (IC50).
The target in assay [3] is PIM1 (Homo sapiens (Human), UniProt P11309). The assay is described as follows: Pim kinase inhibition, PIM1 LC3K (Example 901). It is filed as biochemical.
From the text: Determination of the Pim kinase activity of a Formula I compound is possible by a number of direct and indirect detection methods.
For assay [4], the system named is MM1.S (multiple myeloma) cells. The assay is described as follows: In vitro cell proliferation, MM1.S multiple myeloma cells (CellTiter-Glo, ATP). It is filed as cell-based. The settings on record: read-out: Prolif MM1S ATP (EC50). In outline: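 BaF3 parental cells (medium with 2 ng/mL mIL-3) seeded at 2 k/well and MM1.S at 10 k/well, then exposed to test compound at 37° C, 5% CO2: BaF3 overnight, MM1.S for 72 hours. Viability read by CellTiter-Glo; IC50/EC50 values calculated.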

Setting [5] is: Mus musculus, BaF3, BaF3 parental cells with IL-3, incubated overnight.
Setting [6] is: BaF3 parental cells with IL-3, incubated overnight.

Each structure is given as a SMILES string. Read-outs that look alike come from different tables or passages of the source.

Sequence of PIM1 (P11309 whole entry): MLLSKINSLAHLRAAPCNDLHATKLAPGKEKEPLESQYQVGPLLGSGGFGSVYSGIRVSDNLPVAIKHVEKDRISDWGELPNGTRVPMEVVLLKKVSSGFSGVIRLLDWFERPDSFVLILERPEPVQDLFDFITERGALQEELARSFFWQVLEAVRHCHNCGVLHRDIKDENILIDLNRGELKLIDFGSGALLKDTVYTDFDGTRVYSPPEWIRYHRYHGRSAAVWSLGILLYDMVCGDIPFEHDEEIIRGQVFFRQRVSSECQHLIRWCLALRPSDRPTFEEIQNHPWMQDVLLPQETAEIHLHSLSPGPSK

Consider `Cn1ncc(NC(=O)c2nc(-c3ccncc3F)sc2N)c1N1CCC(N)CC(F)(F)C1` (racemic) [Example 426, 5-amino-N-[5-(5-amino-3,3-difluoro-azepan-1-yl)-1-methyl-pyrazol-4-yl]-2-(3-fluoro-4-pyridyl)thiazole-4-carboxamide], for which the IC50 in assay [1] is 0.0251 µM; in assay [2] (setting [5]), 24.8 µM. In assay [3], this compound displayed a Ki of 0.034 nM.

As for `COC1CC(N)CCN(c2c(NC(=O)c3nc(-c4c(F)cccc4F)sc3N)cnn2C)C1` (centres unmarked) [Example 321, 5-amino-N-[5-(5-amino-3-methoxy-azepan-1-yl)-1-methyl-pyrazol-4-yl]-2-(2,6-difluorophenyl)thiazole-4-carboxamide], the 50% inhibitory concentration (IC50) in assay [2] (setting [6]) was above 25 µM. The EC50 in assay [4] (72 hours) was 0.00846 µM.

Consider `Cn1ncc(NC(=O)c2nc(-c3c(F)cccc3F)sc2N)c1N1CCCC2(CCCN2)CC1` (centres unmarked) [Example 351, 5-amino-N-[5-(1,9-diazaspiro[4.6]undecan-9-yl)-1-methyl-pyrazol-4-yl]-2-(2,6-difluorophenyl)thiazole-4-carboxamide], for which, in assay [2] (setting [5]), the concentration for half-maximal inhibition (IC50) turned out to be 5.6 µM. Also, the concentration giving a half-maximal response (EC50) in assay [4] (Homo sapiens, MM1.S, 72 h) was determined as 4.9 µM.

Take `Cn1ncc(NC(=O)c2nc(-c3c(F)cccc3F)sc2N)c1N1CC2CNCC(C1)O2` [Example 354, 5-amino-2-(2,6-difluorophenyl)-N-[1-methyl-5-(9-oxa-3,7-diazabicyclo[3.3.1]nonan-3-yl)pyrazol-4-yl]thiazole-4-carboxamide]: in assay [2] (setting [5]), the IC50 was found to be 14.4 µM. Moreover, in assay [4] (Homo sapiens, MM1.S, 72 h), the EC50 is 0.168 µM.

Regarding `CNC1CCN(c2c(NC(=O)c3nc(-c4c(F)cccc4F)sc3N)cnn2C)CC(F)(F)C1` (centres unmarked) [Example 408, 5-amino-N-[5-[3,3-difluoro-5-(methylamino)azepan-1-yl]-1-methyl-pyrazol-4-yl]-2-(2,6-difluorophenyl)thiazole-4-carboxamide], in assay [2] (setting [5]), the concentration for half-maximal inhibition (IC50) was 16.5 µM. The EC50 in assay [4] (72 hours) was determined as 2.4 µM.

On to `CNC1CCN(c2c(NC(=O)c3nc(-c4c(F)cccc4F)sc3N)cnn2C)CC(F)(F)C1` (centres unmarked) [Example 409, 5-amino-N-[5-[3,3-difluoro-5-(methylamino)azepan-1-yl]-1-methyl-pyrazol-4-yl]-2-(2,6-difluorophenyl)thiazole-4-carboxamide], for which the concentration for half-maximal inhibition (IC50) in assay [2] (setting [6]) amounted to 10.8 µM. In addition, the half-maximal effective concentration (EC50) in assay [4] (72 hours) turned out to be 0.903 µM.

`CO[C@H]1CC=C(c2c(NC(=O)c3nc(-c4c(F)cccc4F)sc3N)cnn2C)CC[C@@H]1N` [Example 410, 5-amino-N-(5-((4S,5S)-5-amino-4-methoxycyclohept-1-enyl)-1-methyl-1H-pyrazol-4-yl)-2-(2,6-difluorophenyl)thiazole-4-carboxamide]: the IC50 in assay [2] (setting [5]) turned out to be 9.2 µM. Besides, the half-maximal effective concentration (EC50) in assay [4] (Homo sapiens, MM1.S, 72 h) worked out at 0.693 µM.

For the compound `Cn1ncc(NC(=O)c2nc(-c3c(F)cccc3F)sc2N)c1N1CC[C@H](O)[C@@](C)(N)CC1` [Example 424, 5-amino-N-(5-((4S,5S)-4-amino-5-hydroxy-4-methylazepan-1-yl)-1-methyl-1H-pyrazol-4-yl)-2-(2,6-difluorophenyl)thiazole-4-carboxamide], the IC50 in assay [2] (setting [5]) is above 25 µM. Also, the 50% effective concentration (EC50) in assay [4] (Homo sapiens, MM1.S, 72 h) was 6.5 µM.

Regarding `Cn1ncc(NC(=O)c2nc(-c3c(F)cccc3F)sc2N)c1N1CCCC(C)(N)CC1` (centres unmarked) [Example 435, 5-amino-N-[5-(4-amino-4-methyl-azepan-1-yl)-1-methyl-pyrazol-4-yl]-2-(2,6-difluorophenyl)thiazole-4-carboxamide], in assay [2] (setting [5]), the IC50 was found to be 9.8 µM. The EC50 in assay [4] (Homo sapiens, MM1.S, 72 h) was found to be 1.8 µM.

For `C=C1C[C@@H](N)CCN(c2c(NC(=O)c3nc(-c4c(F)cccc4F)sc3N)cnn2C)C1` [Example 449, 5-amino-N-[5-[(5R)-5-amino-3-methylene-azepan-1-yl]-1-methyl-pyrazol-4-yl]-2-(2,6-difluorophenyl)thiazole-4-carboxamide], the IC50 in assay [2] (setting [5]) amounted to 8.5 µM. Also, the half-maximal effective concentration (EC50) in assay [4] (Homo sapiens, MM1.S, 72 h) was 4.2 µM.

Turning to `[2H]C([2H])([2H])n1ncc(NC(=O)c2nc(-c3c(F)cccc3F)sc2N)c1N1CC[C@@H](N)[C@H](F)CC1` [Example 451, 5-amino-N-[5-[(4R,5R)-4-amino-5-fluoro-azepan-1-yl]-1-(trideuteriomethyl)pyrazol-4-yl]-2-(2,6-difluorophenyl)thiazole-4-carboxamide], the IC50 in assay [2] (setting [5]) turned out to be 9.4 µM. In addition, the EC50 in assay [4] (Homo sapiens, MM1.S, 72 h) came out at 0.124 µM.

As to `CC1CC(N)CCN(c2c(NC(=O)c3nc(-c4c(F)cccc4F)sc3N)cnn2C)C1` (centres unmarked) [Example 453, 5-amino-N-[5-(5-amino-3-methyl-azepan-1-yl)-1-methyl-pyrazol-4-yl]-2-(2,6-difluorophenyl)thiazole-4-carboxamide], the IC50 in assay [2] (setting [5]) worked out at 14.1 µM. For the same compound, the concentration for a half-maximal effect (EC50) in assay [4] (Homo sapiens, MM1.S, 72 h) came out at 3.2 µM.

In the case of `Cn1ncc(NC(=O)c2nc(-c3c(F)cccc3F)sc2N)c1N1CC[C@@H](O)[C@@H](O)CC1` [Example 457, 5-amino-2-(2,6-difluorophenyl)-N-(5-((4R,5S)-4,5-dihydroxyazepan-1-yl)-1-methyl-1H-pyrazol-4-yl)thiazole-4-carboxamide], the IC50 in assay [2] (setting [5]) is above 25 µM. Besides, in assay [4] (Homo sapiens, MM1.S, 72 h), the EC50 was 4 µM.

For the compound `Cn1ncc(NC(=O)c2nc(-c3c(F)cccc3F)sc2N)c1N1CCC2(CC1)CNCCO2` [Example 484, 5-amino-2-(2,6-difluorophenyl)-N-[1-methyl-5-(1-oxa-4,9-diazaspiro[5.5]undecan-9-yl)pyrazol-4-yl]thiazole-4-carboxamide], in assay [2] (setting [5]), the 50% inhibitory concentration (IC50) was determined as 14.3 µM. Also, in assay [4] (Homo sapiens, MM1.S, 72 h), the EC50 is 13.7 µM.

Take `COC1(C)CCN(c2c(NC(=O)c3nc(-c4c(F)cccc4F)sc3N)cnn2C)CCC1N` (centres unmarked) [Example 485, 5-amino-N-[5-(5-amino-4-methoxy-4-methyl-azepan-1-yl)-1-methyl-pyrazol-4-yl]-2-(2,6-difluorophenyl)thiazole-4-carboxamide]: the half-inhibitory concentration (IC50) in assay [2] (setting [5]) came to 11.6 µM. Moreover, the EC50 in assay [4] (Homo sapiens, MM1.S, 72 h) is 0.415 µM.

On to `Cn1ncc(NC(=O)c2nc(-c3c(F)cccc3F)sc2N)c1N1CC[C@@H](O)[C@H](O)CC1` [Example 490, 5-amino-2-(2,6-difluorophenyl)-N-(5-((4R,5R)-4,5-dihydroxyazepan-1-yl)-1-methyl-1H-pyrazol-4-yl)thiazole-4-carboxamide], for which the IC50 in assay [2] (setting [5]) was above 25 µM. For the same compound, the EC50 in assay [4] (Homo sapiens, MM1.S, 72 h) was 8.8 µM.

Consider `[2H]C([2H])([2H])OC1CCN(c2c(NC(=O)c3nc(-c4c(F)cccc4F)sc3N)cnn2C)CCC1N` (centres unmarked) [Example 492, 5-amino-N-[5-[4-amino-5-(trideuteriomethoxy)azepan-1-yl]-1-methyl-pyrazol-4-yl]-2-(2,6-difluorophenyl)thiazole-4-carboxamide], for which the 50% inhibitory concentration (IC50) in assay [2] (setting [5]) stood at 20.4 µM. Further, the EC50 in assay [4] (Homo sapiens, MM1.S, 72 h) came to 0.0737 µM.

Take `Cn1ncc(NC(=O)c2nc(-c3c(F)cccc3F)sc2N)c1N1CCC(C)(N)CC(F)(F)C1` (centres unmarked) [Example 495, 5-amino-N-[5-(5-amino-3,3-difluoro-5-methyl-azepan-1-yl)-1-methyl-pyrazol-4-yl]-2-(2,6-difluorophenyl)thiazole-4-carboxamide]: the IC50 in assay [2] (setting [5]) was 5.4 µM. In assay [4] (Homo sapiens, MM1.S, 72 h), the EC50 was 0.888 µM.

Take `CC[C@H]1CN(c2c(NC(=O)c3nc(-c4c(F)cccc4F)sc3N)cnn2C)CC[C@@]1(CN)OC` [Example 496, 5-amino-N-(5-((3S,4R)-4-(aminomethyl)-3-ethyl-4-methoxypiperidin-1-yl)-1-methyl-1H-pyrazol-4-yl)-2-(2,6-difluorophenyl)thiazole-4-carboxamide]: the 50% inhibitory concentration (IC50) in assay [2] (setting [5]) came out at 11.6 µM. Also, the EC50 in assay [4] (Homo sapiens, MM1.S, 72 h) was determined as 19.6 µM.

With `COC1CCC(c2c(NC(=O)c3nc(-c4ccccc4F)sc3N)cnn2C)CCC1N` (centres unmarked) [Example 504], the IC50 in assay [2] (setting [5]) worked out at 15.3 µM. Besides, the half-maximal effective concentration (EC50) in assay [4] (Homo sapiens, MM1.S, 72 h) came out at 10.5 µM.

For `COC1CCC(c2c(NC(=O)c3nc(-c4ccccc4F)sc3N)cnn2C)CCC1N` (centres unmarked) [Example 506], the IC50 in assay [2] (setting [6]) came to 17.1 µM. In addition, in assay [4] (72 hours), the half-maximal effective concentration (EC50) came out at 11.7 µM.

With `Cn1ncc(NC(=O)c2nc(-c3c(F)cccc3F)sc2N)c1N1CCCC2(CNC2)C1` [Example 508, 5-amino-N-[5-(2,6-diazaspiro[3.5]nonan-6-yl)-1-methyl-pyrazol-4-yl]-2-(2,6-difluorophenyl)thiazole-4-carboxamide], in assay [2] (setting [5]), the IC50 came to 25 µM. Also, in assay [4] (Homo sapiens, MM1.S, 72 h), the EC50 amounted to 3 µM.

For the compound `Cn1ncc(NC(=O)c2nc(-c3c(F)cccc3F)sc2N)c1N1CCC(N)C(CO)CC1` (centres unmarked) [Example 513, 5-amino-N-[5-[4-amino-5-(hydroxymethyl)azepan-1-yl]-1-methyl-pyrazol-4-yl]-2-(2,6-difluorophenyl)thiazole-4-carboxamide], the half-inhibitory concentration (IC50) in assay [2] (setting [5]) was above 25 µM. In addition, the EC50 in assay [4] (Homo sapiens, MM1.S, 72 h) is 7.2 µM.

Take `CCOC1CCN(c2c(NC(=O)c3nc(-c4c(F)cccc4F)sc3N)cnn2C)CCC1N` (centres unmarked) [Example 514, 5-amino-N-[5-(4-amino-5-ethoxy-azepan-1-yl)-1-methyl-pyrazol-4-yl]-2-(2,6-difluorophenyl)thiazole-4-carboxamide]: the IC50 in assay [2] (setting [5]) amounted to 15.4 µM. Moreover, in assay [4] (72 hours), the EC50 came out at 3.1 µM.

For the compound `CCOC1CCN(c2c(NC(=O)c3nc(-c4c(F)cccc4F)sc3N)cnn2C)CCC1N` (centres unmarked) [Example 515, 5-amino-N-[5-(4-amino-5-ethoxy-azepan-1-yl)-1-methyl-pyrazol-4-yl]-2-(2,6-difluorophenyl)thiazole-4-carboxamide], in assay [2] (setting [6]), the half-inhibitory concentration (IC50) amounted to 14.7 µM. Moreover, the half-maximal effective concentration (EC50) in assay [4] (72 hours) was 0.0733 µM.

Turning to `CO[C@@H]1CCN(c2c(NC(=O)c3nc(-c4c(F)cccc4F)sc3N)cnn2C)CC2(CC2)[C@@H]1N` [Example 517, 5-amino-N-(5-((8R,9S)-9-amino-8-methoxy-5-azaspiro[2.6]nonan-5-yl)-1-methyl-1H-pyrazol-4-yl)-2-(2,6-difluorophenyl)thiazole-4-carboxamide], the half-maximal inhibitory concentration (IC50) in assay [2] (setting [5]) stood at 11.9 µM. Further, the half-maximal effective concentration (EC50) in assay [4] (Homo sapiens, MM1.S, 72 h) was found to be 9.9 µM.
